Experiments:
[1] = target: T1, telomerase reverse transcriptase (TERT) (Homo sapiens, UniProt O14746); assay: microscale thermophoresis; also microarray displacement of Cy5 primer cocktail (EC50 […]) and TRAP inhibition in cell lysate; format: binding; parameters: recombinant His-tagged full-length human TERT (pET28aTERT, E. coli, urea/N-lauroylsarcosine solubilized, Ni-IMAC)
[2] = target: T1, telomerase reverse transcriptase (TERT); assay: microarray displacement of Cy5 primer cocktail from spotted TERT and lysates; TRAP inhibition in lysate at […]; format: binding; parameters: recombinant His-tagged full-length human TERT (pET28aTERT, E. coli) and cell lysates

T1 sequence (O14746 whole entry): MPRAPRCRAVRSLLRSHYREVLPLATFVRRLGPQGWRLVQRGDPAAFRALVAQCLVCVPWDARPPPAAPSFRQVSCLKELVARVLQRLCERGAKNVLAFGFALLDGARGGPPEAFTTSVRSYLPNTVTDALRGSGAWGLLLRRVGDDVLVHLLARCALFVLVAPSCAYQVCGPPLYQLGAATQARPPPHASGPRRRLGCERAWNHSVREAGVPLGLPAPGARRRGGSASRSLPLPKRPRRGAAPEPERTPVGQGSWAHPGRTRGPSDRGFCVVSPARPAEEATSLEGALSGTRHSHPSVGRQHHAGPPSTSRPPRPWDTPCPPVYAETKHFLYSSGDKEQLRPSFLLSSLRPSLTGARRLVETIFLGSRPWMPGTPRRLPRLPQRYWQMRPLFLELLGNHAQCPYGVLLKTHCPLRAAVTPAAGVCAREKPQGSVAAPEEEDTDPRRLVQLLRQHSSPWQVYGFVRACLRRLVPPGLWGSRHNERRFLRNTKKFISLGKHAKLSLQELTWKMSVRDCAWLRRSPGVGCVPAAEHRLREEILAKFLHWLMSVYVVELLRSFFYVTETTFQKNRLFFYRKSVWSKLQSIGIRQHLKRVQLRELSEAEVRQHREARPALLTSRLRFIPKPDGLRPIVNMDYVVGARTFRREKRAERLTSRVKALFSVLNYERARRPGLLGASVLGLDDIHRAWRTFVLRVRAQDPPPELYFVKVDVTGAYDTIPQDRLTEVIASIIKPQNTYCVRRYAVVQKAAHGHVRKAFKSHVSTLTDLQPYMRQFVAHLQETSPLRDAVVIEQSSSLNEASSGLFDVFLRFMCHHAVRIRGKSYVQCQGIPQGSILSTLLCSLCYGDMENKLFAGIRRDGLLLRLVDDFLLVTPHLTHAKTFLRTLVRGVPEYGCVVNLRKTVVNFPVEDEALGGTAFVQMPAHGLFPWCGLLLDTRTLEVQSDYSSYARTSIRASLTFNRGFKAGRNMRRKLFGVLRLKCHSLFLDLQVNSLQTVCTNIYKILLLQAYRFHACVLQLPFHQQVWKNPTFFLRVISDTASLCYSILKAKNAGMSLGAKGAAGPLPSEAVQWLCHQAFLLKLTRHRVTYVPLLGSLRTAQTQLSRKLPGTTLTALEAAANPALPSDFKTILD

Compound	Kd [1] [µM]	EC50 [2] [µM]
O=C(O[C@@H]1Cc2c(O)cc(O)cc2O[C@@H]1c1cc(O)c(O)c(O)c1)c1cc(O)c(O)c(O)c1 [EGCG, epigallocatechin-3-gallate]	~26	–
C=C1[C@@H](C)C2[C@H](Cc3ccc(I)cc3)NC(=O)[C@@]23C(/C=C/C[C@H](C)C[C@@](C)(O)/C=C/[C@H]3OC(C)=O)[C@@H]1O (some centres unmarked) [compound 7, 4’-iodo cytochalasin H]	–	2.76 to 4.41

From publication PMC12137546, “Development of a microarray based telomerase binding assay reveals unusual binding of a cytochalasin derivative” (Scientific Reports, 2025)
